From ChEMBL document CHEMBL1201862, “PubChem BioAssay data set” (2004)
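Tested at 5 concentrations; 48 h exposure; 96-well plates; endpoints linearly interpolated, else capped at highest concentration. GI50 marks 50% less growth.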 Calls of active or inactive are those of the source. No stated cut-off is given here; in the data, active = GI50 up to about 1.1 µM and inactive = higher.

Legend:
Assay in all cases: DTP human tumour cell line panel, 48 h
A498 = test system: A498
A549 = test system: A549
CAKI-1 = test system: CAKI-1
CCRF-CEM = test system: CCRF-CEM
EKVX = test system: EKVX
HCC 2998 = test system: HCC 2998
LOX IMVI = test system: LOX IMVI
MOLT-4 = test system: MOLT-4
NCI-H23 = test system: NCI-H23
NCI-H522 = test system: NCI-H522
OVCAR-5 = test system: OVCAR-5
OVCAR-8 = test system: OVCAR-8
RXF 393 = test system: RXF 393
SF-268 = test system: SF-268
SN12C = test system: SN12C
SNB-19 = test system: SNB-19
SR = test system: SR
SW-620 = test system: SW-620
UO-31 = test system: UO-31
MDA-MB-435 = test system: MDA-MB-435

Measured: GI50

CCc1cccc(CC)c1NC(=O)C(=O)Cc1nc2ccccc2o1
inactive: A498 > 100 µM | A549 > 100 µM | CAKI-1 > 100 µM | CCRF-CEM > 100 µM | EKVX > 100 µM | HCC 2998 > 100 µM | LOX IMVI > 100 µM | MOLT-4 > 100 µM | NCI-H23 > 100 µM | NCI-H522 > 100 µM | OVCAR-5 > 100 µM | OVCAR-8 > 100 µM | RXF 393 > 100 µM | SF-268 > 100 µM | SN12C > 100 µM | SNB-19 > 100 µM | SR > 100 µM | SW-620 > 100 µM | UO-31 > 100 µM

CC(=O)O/C(=C(/C#N)C(=O)O)C1C(C(=O)O)C(c2ccccc2[N+](=O)[O-])C=C(c2ccco2)N1c1ccncc1 (stereo not given)
inactive: A498 11.2 µM | A549 3.41 µM | CAKI-1 4.3 µM | CCRF-CEM 2.43 µM | EKVX 9.25 µM | HCC 2998 4.97 µM | LOX IMVI 1.91 µM | MDA-MB-435 4.62 µM | MOLT-4 2.54 µM | NCI-H23 5.45 µM | NCI-H522 2.09 µM | OVCAR-5 7.89 µM | OVCAR-8 5.02 µM | SF-268 9.23 µM | SN12C 4.86 µM | SNB-19 11.8 µM | SW-620 1.85 µM | UO-31 2.87 µM

COc1ccc(CNc2nc(NC3CCCCC3)nc(NC3CCCCC3)n2)cc1
inactive: A549 5.38 µM | CAKI-1 5.14 µM | CCRF-CEM 4.63 µM | EKVX 4.78 µM | LOX IMVI 1.79 µM | MDA-MB-435 21.8 µM | MOLT-4 4.25 µM | NCI-H23 2.4 µM | NCI-H522 4.31 µM | OVCAR-5 4.06 µM | OVCAR-8 15.4 µM | RXF 393 3.09 µM | SF-268 6.46 µM | SN12C 6.53 µM | SNB-19 > 100 µM | SW-620 4.19 µM | UO-31 3.57 µM

CCCCC(C(=O)CCC(=O)Nc1ccc(Cl)cc1)C(=O)C(C)C (stereo not given)
inactive: A498 > 100 µM | A549 > 100 µM | CAKI-1 > 100 µM | CCRF-CEM > 100 µM | EKVX > 100 µM | HCC 2998 > 100 µM | LOX IMVI 30.5 µM | MOLT-4 > 100 µM | NCI-H23 > 100 µM | NCI-H522 > 100 µM | OVCAR-5 > 100 µM | OVCAR-8 > 100 µM | RXF 393 > 100 µM | SF-268 > 100 µM | SN12C > 100 µM | SNB-19 > 100 µM | SR > 100 µM | SW-620 > 100 µM | UO-31 > 100 µM

COC(=O)C1=C(C)NC2(C)OC(C)(O)C(C(C)=O)C12C(C)=O (stereo not given)
inactive: A498 60.5 µM | A549 > 100 µM | CAKI-1 > 100 µM | CCRF-CEM 31.6 µM | EKVX > 100 µM | LOX IMVI 89.5 µM | MDA-MB-435 > 100 µM | MOLT-4 > 100 µM | NCI-H23 > 100 µM | NCI-H522 > 100 µM | OVCAR-5 31.5 µM | OVCAR-8 > 100 µM | RXF 393 57.7 µM | SF-268 28.1 µM | SN12C 47.6 µM | SNB-19 > 100 µM | SW-620 > 100 µM

O=C1CNC(=O)/C(=C/c2c[nH]c3ccccc23)N1
inactive: A498 > 100 µM | A549 > 100 µM | CAKI-1 > 100 µM | EKVX > 100 µM | HCC 2998 > 100 µM | LOX IMVI > 100 µM | MDA-MB-435 > 100 µM | MOLT-4 > 100 µM | NCI-H23 > 100 µM | NCI-H522 85.3 µM | OVCAR-5 > 100 µM | OVCAR-8 > 100 µM | RXF 393 > 100 µM | SF-268 > 100 µM | SN12C > 100 µM | SNB-19 > 100 µM | SW-620 > 100 µM | UO-31 > 100 µM

Cc1cccc(C)c1NC(=O)C(=O)C1C(=O)NC(=O)NC1=O
inactive: A498 > 100 µM | A549 > 100 µM | CAKI-1 > 100 µM | CCRF-CEM > 100 µM | EKVX > 100 µM | HCC 2998 > 100 µM | LOX IMVI > 100 µM | MOLT-4 > 100 µM | NCI-H23 > 100 µM | NCI-H522 > 100 µM | OVCAR-5 > 100 µM | OVCAR-8 > 100 µM | RXF 393 > 100 µM | SF-268 > 100 µM | SN12C > 100 µM | SNB-19 > 100 µM | SR > 100 µM | SW-620 > 100 µM | UO-31 > 100 µM

COC(=O)CN1C(=O)C2(C(=O)OC)OC1(c1ccc([N+](=O)[O-])cc1)C1C(=O)N(c3ccccc3)C(=O)C12 (stereo not given)
inactive: A498 > 100 µM | A549 > 100 µM | CAKI-1 > 100 µM | CCRF-CEM > 100 µM | EKVX > 100 µM | LOX IMVI > 100 µM | MDA-MB-435 > 100 µM | MOLT-4 > 100 µM | NCI-H23 > 100 µM | NCI-H522 > 100 µM | OVCAR-5 > 100 µM | OVCAR-8 > 100 µM | RXF 393 > 100 µM | SF-268 > 100 µM | SN12C > 100 µM | SNB-19 > 100 µM | SW-620 > 100 µM | UO-31 > 100 µM
